The record followed here is US20260132413A1, “AROGENATE DEHYDROGENASE POLYNUCLEOTIDES, POLYPEPTIDES AND METHODS OF USING THE SAME” (Wisconsin Alumni Research Foundation, priority 2017, published 2026).

Entries after “also recorded” stand apart in the source; their conditions may differ.

In assay [1] the target is T1, AtADH2 (Arabidopsis thaliana, UniProt Q9LMR3).
T1 construct: made in house; host or cells: E. coli Rosetta-2 (pGEX-2T)
T1 sequence (Q9LMR3 37-358): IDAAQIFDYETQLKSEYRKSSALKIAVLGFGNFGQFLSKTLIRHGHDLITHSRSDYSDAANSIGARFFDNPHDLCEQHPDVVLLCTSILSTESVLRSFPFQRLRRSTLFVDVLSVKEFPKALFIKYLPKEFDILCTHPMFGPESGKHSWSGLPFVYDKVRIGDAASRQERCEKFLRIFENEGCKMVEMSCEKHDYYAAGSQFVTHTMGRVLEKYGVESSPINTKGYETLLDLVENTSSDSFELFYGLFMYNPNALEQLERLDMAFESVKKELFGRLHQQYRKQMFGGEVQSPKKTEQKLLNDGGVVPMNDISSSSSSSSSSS
Nature of the assay: Effector sensitivity of ADH activity of purified recombinant enzyme. Conditions: effector at 1 mM. Format: biochemical. The protocol:
(§1) […]. The production of reduced cofactor (NADPH) was monitored at 340 nm using a spectrophotometer every two minutes for 10 min. In addition, other effectors (L-Phe, L-Trp, and betanin) were used to test possible inhibition of the enzyme ADH activity at a final concentration of 1 mM. All of the reactions were performed under non-saturated condition, where activity increased linearly depending on reaction times and enzyme concentrations.

The subject of assay [2] is BvADHα. Nature of the assay: Tyr/effector sensitivity of ADH activity of purified recombinant enzyme. Type of assay: biochemical, Beta vulgaris. Conditions: for effect of effector on ADH activity: effector at 1 mM. The protocol: as §1
The subject of assay [3] is BvADHβ. The description is as above. Type of assay: biochemical, Beta vulgaris. Particulars: for effect of effector on ADH activity: effector at 1 mM; for inhibition of ADH activity: GST-tagged BvADHβ. The protocol:
as §1

Assay [4] has as its system ADH activity of spinach leaf plastid extract. The experiment in a line: Tyr sensitivity of ADH activity from plant tissue extracts. Format: biochemical, Spinach oleracea. Particulars: 1 mM arogenate, 1 mM NADP+; for inhibition (%): 0.5 mM effector vs 0 mM, 2 hr. The protocol: (§2) Spinach oleracea seeds (HighMowing, Wolcott, VT) and pink Dianthus barbatus (BloomIQ, Lansing, MI) seedlings were purchased from a nursery and were grown together with Arabidopsis thaliana (ecotype Columbia) in 22° C., 60% humidity, and 12/12 h light cycle growth chamber. Leaves of spinach and Arabidopsis seedlings were harvested at 3-week-old, and Dianthus barbatus leaves were harvested at 6-week-old. The crude extracts of Arabidopsis or Dianthus barbatus were prepared from ˜1 g leaf tissues according to Aryal et al. (2014). For spinach, ˜10 g leaf tissues were used to isolate the plastids according to Aryal et al. (2014) in order to avoid the undesired cytosolic polyphenol oxidase activity. Crude or plastid fractions were desalted by Sephadex G50 column to obtain protein extracts, and protein concentration of all biological replicates were adjusted to 0.06, 0.85, and 0.6 mg/mL for spinach, Dianthus barbatus, and Arabidopsis extracts, respectively. […] The reaction was stopped by adding 20 μL methanol containing 10 μM norvaline as an internal standard. Respective boiled protein extracts were used as negative controls. […]

Assay [5] deals with ADH activity of Dianthus barbatus leaf crude extract. The assay is described as above. Type of assay: biochemical. Conditions: 1 mM arogenate, 1 mM NADP+; for inhibition (%): 0.5 mM effector vs 0 mM, 2 hr. The protocol:
as §2

The subject of assay [6] is ADH activity of Arabidopsis leaf crude extract. The assay is described as above. Type of assay: biochemical, Arabidopsis thaliana. Particulars: 1 mM arogenate, 1 mM NADP+; for inhibition (%): 0.5 mM effector vs 0 mM, 2 hr. The protocol: as §2
In assay [7] the test system is SoADHα. Nature of the assay: Tyr sensitivity of ADH activity of purified recombinant enzyme. Type of assay: biochemical, Spinacia oleracea. The protocol:
as §1

Assay [8] concerns NaADHβ. The description is as above. Format: biochemical, Nepenthes ventricosa x alata. The protocol: as §1
The mark [9] stands for this setting: 0.5 mM 3-fluoro-Tyr, 2 hr incubation.

As for `O=C(O)C1=C/C(=C/C=[N+]2/c3cc(O)c(OC4OC(CO)[C@@H](O)C(O)C4O)cc3CC2C(=O)[O-])CC(C(=O)O)N1` (stereo in doubt) [betanin], the “effect of effector on ADH activity” value is listed as “did not significantly reduce” in assay [1], “did not significantly reduce; also recorded: not inhibited” in assay [2] and “did not significantly reduce; also recorded: not inhibited” in assay [3].

`NC(Cc1ccc(O)c(F)c1)C(=O)O` (centres unmarked) [3-fluoro-Tyr]: the values for the ADH activity in assay [4] (setting [9]), in assay [5] (setting [9]) and in assay [6] (setting [9]) were 52.7 ± 1.9 nmol/mg protein, 0.9 ± 0.2 nmol/mg protein and 7.8 ± 0.5 nmol/mg protein, respectively. In addition, the “inhibition (%)” value in assay [4] was found to be 20.7%; in assay [5], 95.0%; in assay [6], 91.6%.

As to `N[C@@H](Cc1ccccc1)C(=O)O` [Phe, L-phenylalanine], the “effect of effector on ADH activity” value in assay [1] is recorded as “did not significantly reduce”; in assay [2], “did not significantly reduce”; in assay [2] (listed as phenylalanine), “not inhibited”; in assay [3], “did not significantly reduce”; in assay [3] (listed as phenylalanine), “not inhibited”.

In the case of `N[C@@H](Cc1ccc(O)cc1)C(=O)O` [Tyr, L-Tyrosine], the “inhibition (%)” value in assay [4] was roughly 21%; in assay [5], 92-95%; in assay [6], 92-95%. Moreover, the “Tyr sensitivity of ADH activity” value in assay [7] is reported as “reduced Tyr sensitivity”. In assay [8], the “inhibition of ADH activity by Tyr” value is “strongly inhibited”. Besides, the “reduction of ADH activity” value in assay [2] (1 mM Tyr, GST-tagged BvADHα) is given as “half”. The “sensitivity to Tyr” value in assay [2] (His-tagged BvADHα, compared with AtADH2) was “much less sensitivity to Tyr than AtADH2”. Further, the “inhibition of ADH activity” value is given as 80% in assay [3] (100 μM Tyr) and 100% in assay [3] (1 mM Tyr).

`N[C@@H](Cc1c[nH]c2ccccc12)C(=O)O` [tryptophan, L-tryptophan]: the results for the “effect of effector on ADH activity” value in assay [1], in assay [2] and in assay [3] were “did not significantly reduce”, “did not significantly reduce; also recorded: not inhibited” and “did not significantly reduce; also recorded: not inhibited”, respectively.
